Kd data for 28 compounds are collected here from patent US10647713B2 (Nimbus Lakshmi, Inc., priority 2016, dated 2020).

human TYK2 (JH2domain-pseudokinase), sequence (P29597 556-888): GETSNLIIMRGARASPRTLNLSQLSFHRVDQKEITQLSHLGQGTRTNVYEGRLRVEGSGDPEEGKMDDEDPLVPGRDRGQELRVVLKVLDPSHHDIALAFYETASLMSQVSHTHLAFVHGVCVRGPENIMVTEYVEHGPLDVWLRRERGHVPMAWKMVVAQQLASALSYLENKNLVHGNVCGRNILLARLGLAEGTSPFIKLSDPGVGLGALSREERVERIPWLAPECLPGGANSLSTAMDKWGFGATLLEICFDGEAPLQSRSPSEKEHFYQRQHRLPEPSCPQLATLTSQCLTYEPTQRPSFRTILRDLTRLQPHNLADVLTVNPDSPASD

This experiment has as its target human TYK2 (JH2domain-pseudokinase) (Homo sapiens (Human), UniProt P29597). The experiment can be described thus: TYK2 JH2 Domain Binding Assay (KINOMEscan, DiscoveRx). Conditions: 11-point dilution, duplicate. An outline of the steps:
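TYK2 JH2 (G556–D888)–NFkB DBD fusion, DNA-tagged, from HEK293 extracts (<0.1 nM) competed against immobilised biotinylated ligand for 1 h at room temperature, 0.9% DMSO. Bead-retained kinase quantified by qPCR; Kd from 11-point 3-fold series (top 30,000 nM, duplicate), Hill fit with slope −1.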
In turn, `CN(c1cc(-c2cncn2C)ccc1Nc1cc(NC(=O)[C@@H]2CC2(F)F)nc2[nH]c(C(F)F)nc12)S(C)(=O)=O` [I-270, (S)—N-(2-(difluoromethyl)-7-((4-(1-methyl-1H-imidazol-5-yl)-2-(N-methylmethylsulfonamido)phenyl)amino)-3H-imidazo[4,5-b]pyridin-5-yl)-2,2-difluorocyclopropane-1-carboxamide] had a Kd of 0.1 to 0.5 nM.

As to `CN(c1cc(-c2cncn2C)ccc1Nc1cc(NC(=O)[C@H]2CC2(F)F)nc2[nH]c(C(F)F)nc12)S(C)(=O)=O` [I-271, (R)—N-(2-(difluoromethyl)-7-((4-(1-methyl-1H-imidazol-5-yl)-2-(N-methylmethylsulfonamido)phenyl)amino)-3H-imidazo[4,5-b]pyridin-5-yl)-2,2-difluorocyclopropane-1-carboxamide], the Kd lay within 1 to 10 nM.

`CS(=O)(=O)c1cc(C2CC2)ccc1Nc1cc(Nc2cccc(C(F)(F)F)n2)nc2[nH]c(C(F)F)nc12` [I-272] came in with an equilibrium dissociation constant (Kd) of 1 to 10 nM.

As to `Cc1nc2c(Nc3ccc(C4CC4)cc3S(C)(=O)=O)cc(Nc3cccc(C(F)(F)F)n3)nc2[nH]1` [I-273], the Kd lay within 0.5 to 1 nM.

For `Cc1nc2c(Nc3ccc(-c4cncn4C)cc3N(C)S(C)(=O)=O)cc(NC(=O)[C@@H]3CC3(F)F)nc2[nH]1` [I-274, (S)-2,2-difluoro-N-(2-methyl-7-((4-(1-methyl-1H-imidazol-5-yl)-2-(N-methylmethylsulfonamido)phenyl)amino)-3H-imidazo[4,5-b]pyridin-5-yl)cyclopropane-1-carboxamide], the Kd was in the range of 0.1 to 0.5 nM.

`Cc1nc2c(Nc3ccc(-c4cncn4C)cc3N(C)S(C)(=O)=O)cc(NC(=O)[C@H]3CC3(F)F)nc2[nH]1` [I-275, (R)-2,2-difluoro-N-(2-methyl-7-((4-(1-methyl-1H-imidazol-5-yl)-2-(N-methylmethylsulfonamido)phenyl)amino)-3H-imidazo[4,5-b]pyridin-5-yl)cyclopropane-1-carboxamide]: the Kd was 1 to 10 nM.

As to `Cc1cc(-c2ccc(Nc3cc(Nc4cccc(C#N)n4)nc4[nH]c(C(F)F)nc34)c(S(C)(=O)=O)c2)nn1C` [I-277], the equilibrium dissociation constant (Kd) fell in the range of 0.1 to 0.5 nM.

As to `Cc1nc2c(Nc3ccc([C@@H]4CCCCO4)cc3S(C)(=O)=O)cc(NC(=O)[C@H]3CC3(F)F)nc2[nH]1` [I-278, (R)-2,2-difluoro-N-(2-methyl-7-((2-(methylsulfonyl)-4-((S)-tetrahydro-2H-pyran-2-yl)phenyl)amino)-3H-imidazo[4,5-b]pyridin-5-yl)cyclopropane-1-carboxamide], the Kd was in the range of 0.1 to 0.5 nM.

For `Cc1nc2c(Nc3ccc([C@@H]4CCCCO4)cc3S(C)(=O)=O)cc(NC(=O)[C@@H]3CC3(F)F)nc2[nH]1` [I-279, (S)-2,2-difluoro-N-(2-methyl-7-((2-(methylsulfonyl)-4-((S)-tetrahydro-2H-pyran-2-yl)phenyl)amino)-3H-imidazo[4,5-b]pyridin-5-yl)cyclopropane-1-carboxamide], the Kd was in the range of 1 to 10 nM.

As for `CS(=O)(=O)c1cc([C@H]2CCCCO2)ccc1Nc1cc(NC(=O)[C@H]2CC2(F)F)nc2[nH]c(C(F)F)nc12` [I-280, (R)—N-(2-(difluoromethyl)-7-((2-(methylsulfonyl)-4-((R)-tetrahydro-2H-pyran-2-yl)phenyl)amino)-3H-imidazo[4,5-b]pyridin-5-yl)-2,2-difluorocyclopropane-1-carboxamide], the equilibrium dissociation constant (Kd) was 0.5 to 1 nM.

Compound `CS(=O)(=O)c1cc([C@H]2CCCCO2)ccc1Nc1cc(NC(=O)[C@@H]2CC2(F)F)nc2[nH]c(C(F)F)nc12` [I-281, (S)—N-(2-(difluoromethyl)-7-((2-(methylsulfonyl)-4-((R)-tetrahydro-2H-pyran-2-yl)phenyl)amino)-3H-imidazo[4,5-b]pyridin-5-yl)-2,2-difluorocyclopropane-1-carboxamide] came in with a dissociation constant (Kd) of 1 to 10 nM.

`Cc1nc2c(Nc3ccc(C4=NC(C)(C)CO4)cc3S(C)(=O)=O)cc(NC(=O)[C@@H]3C[C@@H]3F)nc2[nH]1` [I-282, (1S,2S)—N-(7-((4-(4,4-dimethyl-4,5-dihydrooxazol-2-yl)-2-(methylsulfonyl)phenyl)amino)-2-methyl-3H-imidazo[4,5-b]pyridin-5-yl)-2-fluorocyclopropane-1-carboxamide] registered a Kd of 1 to 10 nM.

Consider `CC1(C)CN=C(c2ccc(Nc3cc(NC(=O)C4CC4)nc4[nH]c(C(F)F)nc34)c(S(C)(=O)=O)c2)O1` [I-283, N-(2-(difluoromethyl)-7-((4-(5,5-dimethyl-4,5-dihydrooxazol-2-yl)-2-(methylsulfonyl)phenyl)amino)-3H-imidazo[4,5-b]pyridin-5-yl)cyclopropanecarboxamide], for which the Kd lay in the range of 1 to 10 nM.

Consider `Cc1nc2c(Nc3ccc(C4=NCC(C)(C)O4)cc3S(C)(=O)=O)cc(NC(=O)C3CC3)nc2[nH]1` [I-284, N-(7-((4-(5,5-dimethyl-4,5-dihydrooxazol-2-yl)-2-(methylsulfonyl)phenyl)amino)-2-methyl-3H-imidazo[4,5-b]pyridin-5-yl)cyclopropanecarboxamide], for which the equilibrium dissociation constant (Kd) was in the range of 0.5 to 1 nM.

The compound `CP(C)(=O)c1cc(C2CC2)ccc1Nc1cc(NC(=O)C2CC2)nc2[nH]c(C(F)F)nc12` [I-285, N-(7-((4-cyclopropyl-2-(dimethylphosphoryl)phenyl)amino)-2-(difluoromethyl)-3H-imidazo[4,5-b]pyridin-5-yl)cyclopropanecarboxamide] had a Kd of 0.1 to 0.5 nM.

Compound `Cc1nc2c(Nc3ccc(C4CC4)cc3P(C)(C)=O)cc(NC(=O)C3CC3)nc2[nH]1` [I-286, N-(7-((4-cyclopropyl-2-(dimethylphosphoryl)phenyl)amino)-2-methyl-3H-imidazo[4,5-b]pyridin-5-yl)cyclopropanecarboxamide] returned a Kd of 0.1 to 0.5 nM.

As for `CS(=O)(=O)c1cc(-c2ccn(C3CC3)n2)ccc1Nc1cc(NC(=O)C2CC2)nc2[nH]c(C(F)F)nc12` [I-287, N-(7-((4-(1-cyclopropyl-1H-pyrazol-3-yl)-2-(methylsulfonyl)phenyl)amino)-2-(difluoromethyl)-3H-imidazo[4,5-b]pyridin-5-yl)cyclopropanecarboxamide], the dissociation constant (Kd) lay within 0.1 to 0.5 nM.

`Cc1csc(-c2ccc(Nc3cc(NC(=O)C4CC4)nc4[nH]c(C(F)F)nc34)c(S(C)(=O)=O)c2)n1` [I-288, N-(2-(difluoromethyl)-7-((2-(methylsulfonyl)-4-(4-methylthiazol-2-yl)phenyl)amino)-3H-imidazo[4,5-b]pyridin-5-yl)cyclopropanecarboxamide] returned a Kd of 0.1 to 0.5 nM.

The compound `Cc1csc(-c2ccc(Nc3cc(NC(=O)C4CC4)nc4[nH]c(C)nc34)c(S(C)(=O)=O)c2)n1` [I-289, N-(2-methyl-7-((2-(methylsulfonyl)-4-(4-methylthiazol-2-yl)phenyl)amino)-3H-imidazo[4,5-b]pyridin-5-yl)cyclopropanecarboxamide] yielded a Kd of 0.1 to 0.5 nM.

Compound `Cc1cc(-c2ccc(Nc3cc(Nc4cccc(C(F)(F)F)n4)nc4[nH]c(C(F)F)nc34)c(S(C)(=O)=O)c2)nn1C` [I-290, 2-(difluoromethyl)-N7-(4-(1,5-dimethyl-1H-pyrazol-3-yl)-2-(methylsulfonyl)phenyl)-N5-(6-(trifluoromethyl)pyridin-2-yl)-3H-imidazo[4,5-b]pyridine-5,7-diamine] gave an equilibrium dissociation constant (Kd) of 0.5 to 1 nM.

The compound `Cc1nc2c(Nc3ccc([C@@H]4CCOC4)cc3S(C)(=O)=O)cc(NC(=O)C3CC3)nc2[nH]1` [I-291, (S)—N-(2-methyl-7-((2-(methylsulfonyl)-4-(tetrahydrofuran-3-yl)phenyl)amino)-3H-imidazo[4,5-b]pyridin-5-yl)cyclopropanecarboxamide] returned a Kd of 0.5 to 1 nM.

In turn, `Cc1nc2c(Nc3ccc([C@H]4CCOC4)cc3S(C)(=O)=O)cc(NC(=O)C3CC3)nc2[nH]1` [I-292, (R)—N-(2-methyl-7-((2-(methylsulfonyl)-4-(tetrahydrofuran-3-yl)phenyl)amino)-3H-imidazo[4,5-b]pyridin-5-yl)cyclopropanecarboxamide] returned a Kd of 1 to 10 nM.

As to `CS(=O)(=O)c1cc(C2CCOCC2)ccc1Nc1cc(NC(=O)[C@@H]2CC2(F)F)nc2[nH]c(C(F)F)nc12` [I-293, (S)—N-(2-(difluoromethyl)-7-((2-(methylsulfonyl)-4-(tetrahydro-2H-pyran-4-yl)phenyl)amino)-3H-imidazo[4,5-b]pyridin-5-yl)-2,2-difluorocyclopropane-1-carboxamide], the dissociation constant (Kd) lay in the range of 1 to 10 nM.

`CS(=O)(=O)c1cc(C2CCOCC2)ccc1Nc1cc(NC(=O)[C@H]2CC2(F)F)nc2[nH]c(C(F)F)nc12` [I-294, (R)—N-(2-(difluoromethyl)-7-((2-(methylsulfonyl)-4-(tetrahydro-2H-pyran-4-yl)phenyl)amino)-3H-imidazo[4,5-b]pyridin-5-yl)-2,2-difluorocyclopropane-1-carboxamide] showed a Kd of 1 to 10 nM.

As to `COCCNc1ccc(Nc2cc(Nc3ccccc3N(C)S(C)(=O)=O)c3nc(C(F)F)[nH]c3n2)nc1C#N` [I-295, N-(2-((5-((6-cyano-5-((2-methoxyethyl)amino)pyridin-2-yl)amino)-2-(difluoromethyl)-3H-imidazo[4,5-b]pyridin-7-yl)amino)phenyl)-N-methylmethane sulfonamide], the Kd fell in the range of 0.1 to 0.5 nM.

As for `COc1c(Nc2cc(NC(=O)[C@@H]3C[C@@H]3F)nc3[nH]c(C(F)F)nc23)cccc1-c1ncn(C)n1` [I-296, (1S,2S)—N-(2-(difluoromethyl)-7-((2-methoxy-3-(1-methyl-1H-1,2,4-triazol-3-yl)phenyl)amino)-3H-imidazo[4,5-b]pyridin-5-yl)-2-fluorocyclopropane-1-carboxamide], the dissociation constant (Kd) was 0.5 to 1 nM.

`C[S@+]([O-])c1ccccc1Nc1cc(NC(=O)C2CC2)nc2[nH]c(C(F)F)nc12` [I-297, (S)—N-(2-(difluoromethyl)-7-((2-(methylsulfinyl)phenyl)amino)-3H-imidazo[4,5-b]pyridin-5-yl)cyclopropanecarboxamide] came in with an equilibrium dissociation constant (Kd) of 0.5 to 1 nM.

Compound `C[S@@+]([O-])c1ccccc1Nc1cc(NC(=O)C2CC2)nc2[nH]c(C(F)F)nc12` [I-298, (R)—N-(2-(difluoromethyl)-7-((2-(methylsulfinyl)phenyl)amino)-3H-imidazo[4,5-b]pyridin-5-yl)cyclopropanecarboxamide] came in with a Kd greater than 10 nM.
